Results as given in patent US20240391882A1 (Mirati Therapeutics, Inc., priority 2023, published 2024).

Columns and labels:
Assay type in all cases: cell-based
[1] = system: T47D (PI3Kα H1047R mutant) cells; assay: Cell viability (CellTiter-Glo 2.0) in T47D cells; settings: Homo sapiens, T47D, 72 h, approximately 72 hours
Outline: (§1)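 SKBR3 or T47D cells, 1000 per well, were seeded overnight and then exposed ~72 h at 37° C to 10 concentrations of compound, 1:4 dilutions from 10 μm. Viability read by CellTiter-Glo luminescence as percent of vehicle; IC50 from four-parameter variable-slope fit.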

[2] = system: pAKT in T47D (PI3Kα H1047R mutant) cells; assay: Inhibition of pAKT (alphaLISA Surefire Ultra AKT 1/2/3 pS473) in T47D cells; settings: Homo sapiens; T47D (PI3Kα H1047R mutant) cells, 24 hr compound incubation, alphaLISA pS473; read-out: T47D (H1047R) pAKT 24 hr (IC50)
Outline: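 Cells in HBSS were dosed from 10.4 μm (1:4 serial dilution, 10 concentrations) and incubated about 24 hours at 37° C, then lysed. pAKT S473 measured by alphaLISA after overnight bead incubation. Signal normalised to alpelisib (3.125 μm) and DMSO controls; IC50 from four-parameter fit.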

[3] = system: SKBR3 (PI3Kα wild type) cells; assay: Cell viability (CellTiter-Glo 2.0) in SKBR3 cells; settings: Homo sapiens, SK-BR-3; SKBR3 (PI3Kα wild type) cells, approximately 72 hours, CellTiter-Glo 2.0; read-out: SKBR3 (WT) Viability IC50
Outline: as §1

[4] = system: pAKT in SKBR3 (PI3Kα wild type) cells; assay: Inhibition of pAKT (alphaLISA Surefire Ultra AKT 1/2/3 pS473) in SKBR3 cells; settings: Homo sapiens, SK-BR-3, approximately 24 hours treatment, read-out: SKBR3 (WT) pAKT IC50
Experimental: The ability of a compound of Formula (I) to inhibit the formation of pAKT was measured using alphaLISA Surefire Ultra AKT 1/2/3 (pS473) Assay Kit (#ALSU-PAKT-B50K) was obtained from Perkin Elmer (Waltham, MA).
To prepare assay plates for pAKT alphaLISA assays, cells were trypsinized, resuspended in fresh media, and viable cells were counted utilizing trypan blue exclusion. Prior to seeding, cells were washed with PBS and resuspended in HBSS (Gibco, #14025092). T47D (12,000/w), SKBR3 (12,000/w), or MKN1 (24,000/w) cells were seeded at 12 μl per well in a solid white flat bottom 384 cell culture plate (Perkin Elmer #6007680).
Immediately after seeding, cells were dosed using an Echo Liquid Handler (Beckman Coulter) with compounds at a 10.4 μm starting concentration and serially diluted (1:4) for a total of 10 concentrations. […] Plates were then imaged the following day using a CLARIOstar microplate reader (BMG Labtech, Germany).
Percent of control values were calculated by subtracting the average signal from the positive control (alpelisib) treated wells from all treated wells (including DMSO control wells) and then divided by the average signal from the vehicle DMSO treated control wells. Percent of vehicle control values were plotted as log(inhibitor) vs. response—Variable slope (four parameters) for curve fitting and IC50 values were determined using XLfit.

IC50 [1] [nM] | IC50 [2] [nM] | IC50 [3] [nM] | IC50 [4] [nM] | SMILES
456 | 39 | > 10000 | > 10000 | Cc1cc(C(C)Nc2ccccc2C(=O)O)c2nc(N3CCCCC3)c(C#N)nc2c1 (stereo not shown) [Example 1, 2-((1-(2-cyano-7-methyl-3-(piperidin-1-yl)quinoxalin-5-yl)ethyl)amino)benzoic acid]
170 | 3.7 | > 10000 | – | Cc1cc([C@@H](C)Nc2ccc(Cl)nc2C(=O)O)c2nc(N3CC4(C3)CC(F)(F)C4)c(C#N)nc2c1 [Example 255, (R)-6-chloro-3-((1-(2-cyano-3-(6,6-difluoro-2-azaspiro[3.3]heptan-2-yl)-7-methylquinoxalin-5-yl)ethyl)amino)picolinic acid]
